#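 Method: 48-hour compound exposure of cells in 96-well plates, five concentrations, linear interpolation of endpoints. TGI marks complete inhibition of growth.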
# Legend:
# Assay in all cases: NCI-60 cell line screen, 48 h
# [1] = tested on: A498 renal
# [2] = tested on: A549 NSCLC
# [3] = tested on: ACHN renal
# [4] = tested on: CAKI-1 renal
# [5] = tested on: CCRF-CEM leukemia
# [6] = tested on: COLO 205 colon
# [7] = tested on: DLD-1 colon
# [8] = tested on: DMS 114 small cell lung
# [9] = tested on: DMS 273 small cell lung
# [10] = tested on: EKVX NSCLC
# [11] = tested on: HCT-116 colon
# [12] = tested on: HCT-15 colon
# [13] = tested on: HL-60(TB) leukemia
# [14] = tested on: HOP-18 NSCLC
# [15] = tested on: HOP-92 NSCLC
# [16] = tested on: HT29 colon
# [17] = tested on: IGROV1 ovarian
# [18] = tested on: K-562 leukemia
# [19] = tested on: KM12 colon
# [20] = tested on: KM20L2 colon
# [21] = tested on: LOX IMVI melanoma
# [22] = tested on: LXFL 529 NSCLC
# [23] = tested on: M14 melanoma
# [24] = tested on: M19-MEL melanoma
# [25] = tested on: MOLT-4 leukemia
# [26] = tested on: NCI-H226 lung
# [27] = tested on: NCI-H23 lung
# [28] = tested on: NCI-H460 lung
# [29] = tested on: NCI-H522 lung
# [30] = tested on: OVCAR-3 ovarian
# [31] = tested on: OVCAR-4 ovarian
# [32] = tested on: OVCAR-5 ovarian
# [33] = tested on: OVCAR-8 ovarian
# [34] = tested on: RPMI-8226 leukemia
# [35] = tested on: RXF 393 renal
# [36] = tested on: SF-268 CNS
# [37] = tested on: SF-295 CNS
# [38] = tested on: SF-539 CNS
# [39] = tested on: SK-MEL-28 melanoma
# [40] = tested on: SK-MEL-5 melanoma
# [41] = tested on: SK-OV-3 ovarian
# [42] = tested on: SN12C renal
# [43] = tested on: SNB-19 CNS
# [44] = tested on: SNB-75 CNS
# [45] = tested on: SNB-78 CNS
# [46] = tested on: SW-620 colon
# [47] = tested on: TK-10 renal
# [48] = tested on: U251 CNS
# [49] = tested on: UACC-257 melanoma
# [50] = tested on: UACC-62 melanoma
# [51] = tested on: UO-31 renal
# [52] = tested on: XF 498 CNS
# [53] = tested on: 786-0 renal
# [54] = tested on: HCC-2998 colon
# [55] = tested on: HOP-62 NSCLC
# [56] = tested on: MALME-3M melanoma
# [57] = tested on: SK-MEL-2 melanoma
# [58] = tested on: SR leukemia
structure (smiles),measurement,setting,value
COC(=O)C1CCC(=O)C(Sc2ccccc2)C1 (centres undefined),TGI,[1],> 100 µM
same,TGI,[2],> 100 µM
same,TGI,[3],> 100 µM
same,TGI,[4],> 100 µM
same,TGI,[5],80 µM
same,TGI,[6],> 100 µM
same,TGI,[7],> 100 µM
same,TGI,[8],> 100 µM
same,TGI,[9],> 100 µM
same,TGI,[10],> 100 µM
same,TGI,[11],> 100 µM
same,TGI,[12],> 100 µM
same,TGI,[13],> 100 µM
same,TGI,[14],> 100 µM
same,TGI,[15],> 100 µM
same,TGI,[16],> 100 µM
same,TGI,[17],> 100 µM
same,TGI,[18],> 100 µM
same,TGI,[19],> 100 µM
same,TGI,[20],> 100 µM
same,TGI,[21],> 100 µM
same,TGI,[22],> 100 µM
same,TGI,[23],> 100 µM
same,TGI,[24],> 100 µM
same,TGI,[25],> 100 µM
same,TGI,[26],> 100 µM
same,TGI,[27],> 100 µM
same,TGI,[28],> 100 µM
same,TGI,[29],> 100 µM
same,TGI,[30],> 100 µM
same,TGI,[31],> 100 µM
same,TGI,[32],> 100 µM
same,TGI,[33],> 100 µM
same,TGI,[34],> 100 µM
same,TGI,[35],> 100 µM
same,TGI,[36],> 100 µM
same,TGI,[37],> 100 µM
same,TGI,[38],> 100 µM
same,TGI,[39],> 100 µM
same,TGI,[40],> 100 µM
same,TGI,[41],> 100 µM
same,TGI,[42],> 100 µM
same,TGI,[43],> 100 µM
same,TGI,[44],96.4 µM
same,TGI,[45],> 100 µM
same,TGI,[46],> 100 µM
same,TGI,[47],> 100 µM
same,TGI,[48],> 100 µM
same,TGI,[49],> 100 µM
same,TGI,[50],> 100 µM
same,TGI,[51],99 µM
same,TGI,[52],> 100 µM
Cc1nc(C(N)=S)sc1C(=O)CC(=O)C(=O)Nc1c(C(C)C)cccc1C(C)C,TGI,[53],> 100 µM
same,TGI,[1],> 100 µM
same,TGI,[2],> 100 µM
same,TGI,[3],> 100 µM
same,TGI,[4],> 100 µM
same,TGI,[5],> 100 µM
same,TGI,[6],> 100 µM
same,TGI,[7],> 100 µM
same,TGI,[8],64.6 µM
same,TGI,[10],> 100 µM
same,TGI,[54],> 100 µM
same,TGI,[11],> 100 µM
same,TGI,[12],> 100 µM
same,TGI,[13],> 100 µM
same,TGI,[14],> 100 µM
same,TGI,[55],> 100 µM
same,TGI,[15],92.9 µM
same,TGI,[16],> 100 µM
same,TGI,[17],> 100 µM
same,TGI,[18],> 100 µM
same,TGI,[19],> 100 µM
same,TGI,[20],> 100 µM
same,TGI,[21],> 100 µM
same,TGI,[22],> 100 µM
same,TGI,[23],> 100 µM
same,TGI,[24],> 100 µM
same,TGI,[56],> 100 µM
same,TGI,[25],> 100 µM
same,TGI,[26],> 100 µM
same,TGI,[27],88.9 µM
same,TGI,[28],> 100 µM
same,TGI,[29],46.9 µM
same,TGI,[30],42 µM
same,TGI,[31],> 100 µM
same,TGI,[32],> 100 µM
same,TGI,[33],> 100 µM
same,TGI,[34],> 100 µM
same,TGI,[35],> 100 µM
same,TGI,[36],> 100 µM
same,TGI,[37],85.4 µM
same,TGI,[38],86.3 µM
same,TGI,[57],> 100 µM
same,TGI,[39],> 100 µM
same,TGI,[40],> 100 µM
same,TGI,[41],> 100 µM
same,TGI,[42],> 100 µM
same,TGI,[43],> 100 µM
same,TGI,[44],71.7 µM
same,TGI,[45],> 100 µM
same,TGI,[58],> 100 µM
same,TGI,[46],> 100 µM
same,TGI,[47],> 100 µM
same,TGI,[48],> 100 µM
same,TGI,[49],> 100 µM
same,TGI,[50],> 100 µM
same,TGI,[51],> 100 µM
same,TGI,[52],48.8 µM

# From PubChem BioAssay (NCI)
